One compound from patent US20010014444A1, “Gene regulator fusion proteins and methods of using the same for determining resistance of a protein to a drug targeted thereagainst” (priority 1998, published 2001) can be followed below.

Experiment [1] concerns inactive HIV protease (164) [D25E] (pL448.2). Kind of experiment: Blue/white colony color assay, HIV-PR-LacI fusion protein / β-galactosidase reporter two plasmid system. It counts as cell-based. As to conditions: E. coli containing pL448.2; Bluogal indicator media with arabinose inducer, supplemented with indinavir at various concentrations; also blue without indinavir.
Description: Three E. coli strains, each containing a reporter plasmid for expression of β-galactosidase, and a HIV-PR-LacI expression plasmid for expression of a HIV-PR-LacI fusion protein, were tested using the blue/white color assay of the present invention. These strains were designed to be identical except for mutations within the HIV-PR regions, as set forth below:
Plasmid pL446.1 expresses a fusion protein containing HIV-PR and the LacI gene repressor. Expression is mediated by the ARAB promoter/operator and expression is induced by addition of arabinose sugar to the growth medium.
Media plates were prepared by adding to standard Luria Broth Agar, per liter of Luria Broth Agar, 2,000 μl of 100 mg/ml Ampicillin, 800 μl of 34 mg/ml Chloramrphenicol, 1 ml 1M IPTG. Similarly, indicator media was prepared by adding Bluogal (Life Technologies Inc.) to the media, 16.8 ml Bluogal stock (2% in dimethyl formamide) per liter of Luria Broth Agar. […] The E. coli strains were then plated onto the indicator media and allowed to grow for about 16 hours.
Experiment [2] relates to HIV-PR variants expressing the resistance-conferring mutations V82T or I84V. Kind of experiment: Colony color assay with site directed HIV-PR variants of known genotype. It counts as cell-based. As to conditions: plate with indinavir (MK-639) and Bluogal; only colonies with V82T or I84V variants were white; whiter with V82T and I84V than with V82T. The method, then: Site directed mutagensis was used to construct HIV-PR gene variants encoding the mutations 1) [D25E] […] These variant genes were put into fusion protein expression plasmids in the manner set forth in Example 1, and the resulting fusion protein expression plasmids and a β-galactosidase reporter plasmid expression were subcloned into E. coli, which were then plated on indicator media designed to report E. coli having HIV-PR activity as white colonies and E. coli without HIV-PR activity as blue colonies.
In the method of the present invention, β-galactosidase activity is regulated indirectly by activity of the HIV-PR in the fusion protein expression plasmid. All the E. coli cells used were identical and expressed similar HIV-PR-LacI fusion proteins, except that the HIV-PR genotype is different for different colonies.

Each structure is given as a SMILES string.

With `CC(C)(C)NC(=O)[C@@H]1CN(Cc2cccnc2)CCN1C[C@@H](O)C[C@@H](Cc1ccccc1)C(=O)N[C@H]1c2ccccc2C[C@H]1O` [indinavir], in experiment [1], the “color of E. coli colonies on indicator media” value is “blue”. Also, the “color of E. coli colonies on plate with indinavir and color indicator” value in experiment [2] is listed as “white”.
